In PMC9804470, “A Formylglycine‐Peptide for the Site‐Directed Identification of Phosphotyrosine‐Mimetic Fragments” (Chemistry (Weinheim an Der Bergstrasse, Germany), 2022):
Entries after “also recorded” stand apart in the source; their conditions may differ. Where two headings read alike, the source gives them in different places. *1 amine or outer side, *2 acyl side, *3 side chain or, on linkers, in order; H or OH if unused. Where a SMILES comes first, the peptide text is derived from it. [ ]: non-standard residue; d: D form. The star is where a group is joined. ξ: configuration not given here. F2Pmp = N[C@@H](Cc1ccc(C(F)(F)P(=O)(O)O)cc1)C(=O)O; X3 = O=C1NC(=O)C(CC(N[*:1])C(=O)[*:2])C(=O)N1; X4 = O=S(=O)(Nc1ccc(*)cc1)C(F)(F)F; X2 = O=C(O)COc1ccc(*)cc1; X1 = O=C(O)Cc1ccc(*)cc1; Dap = NC[C@H](N)C(=O)O; ξDap = NCC(N)C(=O)O

Columns and labels:
[1] = biological target: T1, catalytic domain of human PTP1B (Homo sapiens, UniProt P18031); assay: Enzyme activity assay of PTP1B with fluorogenic substrate DiFMUP; assay type: biochemical; conditions: SD
T1 construct: catalytic domain of human PTP1B (amino acids 1–321); His7 (N, cleaved yes); made in house; host or cells: E. coli Rosetta (DE3)
T1 sequence (P18031 1-321): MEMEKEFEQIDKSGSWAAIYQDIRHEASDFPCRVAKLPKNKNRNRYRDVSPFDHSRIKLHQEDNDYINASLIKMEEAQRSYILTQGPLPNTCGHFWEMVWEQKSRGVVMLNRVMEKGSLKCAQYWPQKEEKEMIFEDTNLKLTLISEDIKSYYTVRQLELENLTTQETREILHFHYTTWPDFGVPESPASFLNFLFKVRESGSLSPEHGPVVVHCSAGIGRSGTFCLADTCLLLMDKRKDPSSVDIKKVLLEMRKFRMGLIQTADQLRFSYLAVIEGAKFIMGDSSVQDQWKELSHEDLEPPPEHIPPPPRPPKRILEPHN
Method: Protein Expression and purification: DNA encoding the catalytic domain of human PTP1B (amino acids 1–321) was subcloned into the pQLinkH vector. The gene encoding the N‐terminal His7‐tagged protein was over‐expressed at 17 °C in E. coli Rosetta (DE3). […] The His7‐tag was cleaved with tobacco etch virus protease at 20 °C prior to the gel‐filtration step. The catalytic domain of human SHP2 (amino acids 225–541) was purified from E. coli B21 (DE3). The overexpressed protein was fused to an N‐terminal His10‐tag. Cells were harvested and resuspended in 25 mM Tris‐HCl (pH=7.5), 50 mM NaCl, 1 % (v/v) Triton X‐100, 10 % (v/v) glycerol, 1 mM DTT. After cell lysis, debris was removed by centrifugation at 12,000 rpm for 30 min. The supernatant was filtered prior to affinity purification with Ni‐NTA agarose (Qiagen). The slurry was washed with 50 mM Tris‐HCl (pH=8.0), 500 mM NaCl supplemented with 25 mM imidazole. Reasonably pure protein was eluted with 200–300 mM imidazole. The purification was completed by size‐exclusion chromatography with a Superdex 75 16/600 column (GE Healthcare) equilibrated with 20 mM HEPES‐NaOH (pH=7.5), 50 mM NaCl, 1 mM DTT.
(§1) Enzyme activity assays of SHP2 and PTP1B: The catalytic activity of SHP2 catalytic domain and PTP1B were monitored using the fluorogenic substrate DiFMUP (6,8‐difluoro‐4‐methylumbelliferyl phosphate). Phosphatase reactions were performed at room temperature in 384‐well black plate, clear flat bottom, low flange, non‐binding surface (Corning, Cat# 3766) using a final volume of 20 μL and the following assay buffer conditions: 50 mM MOPS, pH=6.5, 200 mM NaCl, 50 μM TCEP, 0.03 % Tween‐20 (freshly added prior to each measurement). Test compounds were dissolved in DMSO or buffer at stock concentrations of 50, 20 or 10 mM and serially diluted. Enzyme (5 nM PTP1B or 2.5 nM SHP2 catalytic domain) and different concentrations of the tested compounds were incubated in buffer for 30–60 min at room temperature. Measurements were performed with a final concentration of 2.5 % DMSO unless stated otherwise at 37 °C and were performed in triplicate. Enzymatic reactions were started by adding DiFMUP (Invitrogen, cat# D6567) concentrations matching the experimentally determined KM values of the enzymes of 67 μM (PTP1B) or 72 μM (SHP2). Samples were excited at a wavelength of 360 nm and emitted fluorescence was recorded at 460 for 10 min using a microplate reader (infinite M1000 Pro, Tecan). Initial slope of fluorescence was determined in triplicate and IC50 values were calculated with GraphPad Prism 5. Determined IC50 values were converted into the corresponding KI values applying the Cheng Prusoff equation KI =IC50 /(1+[S]/KM ).

[2] = biological target: T2, catalytic domain of human SHP2 (Homo sapiens, UniProt Q06124); assay: Enzyme activity assay of SHP2 catalytic domain with fluorogenic substrate DiFMUP; assay type: biochemical; conditions: DiFMUP 72 μM (= KM), enzyme 1.5 nM, triplicate; from IC50 by Cheng-Prusoff (IC50/2); read-out: KI SHP2 (Table 2, footnote a)
T2 construct: catalytic domain of human SHP2 (amino acids 225–541); His10 (N); made in house; host or cells: E. coli B21 (DE3)
T2 sequence (Q06124 225-541): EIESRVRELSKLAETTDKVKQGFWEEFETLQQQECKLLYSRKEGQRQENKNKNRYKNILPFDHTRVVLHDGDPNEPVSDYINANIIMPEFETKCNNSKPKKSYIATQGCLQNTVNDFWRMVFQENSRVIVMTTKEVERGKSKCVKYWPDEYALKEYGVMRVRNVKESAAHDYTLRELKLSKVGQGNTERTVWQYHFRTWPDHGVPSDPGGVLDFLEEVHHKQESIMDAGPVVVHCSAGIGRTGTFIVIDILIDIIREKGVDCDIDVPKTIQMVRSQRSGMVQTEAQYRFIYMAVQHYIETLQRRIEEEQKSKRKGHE
Method: Enzyme activity assays of SHP2 and PTP1B: The catalytic activity of SHP2 catalytic domain and PTP1B were monitored using the fluorogenic substrate DiFMUP (6,8‐difluoro‐4‐methylumbelliferyl phosphate). Phosphatase reactions were performed at room temperature in 384‐well black plate, clear flat bottom, low flange, non‐binding surface (Corning, Cat# 3766) using a final volume of 20 μL and the following assay buffer conditions: 50 mM MOPS, pH=6.5, 200 mM NaCl, 50 μM TCEP, 0.03 % Tween‐20 (freshly added prior to each measurement). Test compounds were dissolved in DMSO or buffer at stock concentrations of 50, 20 or 10 mM and serially diluted. Enzyme (5 nM PTP1B or 2.5 nM SHP2 catalytic domain) and different concentrations of the tested compounds were incubated in buffer for 30–60 min at room temperature. […] Enzymatic reactions were started by adding DiFMUP (Invitrogen, cat# D6567) concentrations matching the experimentally determined KM values of the enzymes of 67 μM (PTP1B) or 72 μM (SHP2). Samples were excited at a wavelength of 360 nm and emitted fluorescence was recorded at 460 for 10 min using a microplate reader (infinite M1000 Pro, Tecan). Initial slope of fluorescence was determined in triplicate and IC50 values were calculated with GraphPad Prism 5. Determined IC50 values were converted into the corresponding KI values applying the Cheng Prusoff equation KI =IC50 /(1+[S]/KM ).

[3] = biological target: T3, SHP2 (Homo sapiens, UniProt Q06124); assay: Determination of KI using Michaelis-Menten kinetics; assay type: biochemical
T3 construct: catalytic domain of human SHP2 (amino acids 225–541); His10 (N); made in house; host or cells: E. coli B21 (DE3)
T3 sequence (Q06124 225-541): T2 sequence (Q06124 225-541)
Method: as §1
Determination of KI values using Michaelis-Menten kinetics
The assays for the determination of KI values were performed as described under the same conditions as mentioned in the main paper. The initial velocities of the enzymatic reaction inhibited by compound 21 were determined using four different inhibitor concentrations (0, 75, 100 and 150 nM) and four different substrate concentrations (100, 50, 25 and 12.5 µM).
Fluorescence was monitored over 10 min, during which the increase in fluorescence was linear. Initial velocities were calculated and were plotted as a function of the substrate concentration. The inhibition constant KI was determined using Michaelis-Menten kinetics applying GraphPad Prism 9 (Supplementary Figure 31). The obtained data were fitted to three different inhibition models, namely competitive, uncompetitive, and non-competitive inhibition.
The best fit was obtained for the competitive inhibition mode, resulting in the highest correlation […]
Supplementary Figure 31. Michaelis-Menten plots of compound 21 using inhibitor […]
Table 2. Results of Michaelis-Menten plots for different modes of inhibition of compound 21 (competitive, uncompetitive and non-competitive inhibition).
Inhibition model Competitive Uncompetitive Non-competitive
(1 picture or pasted object on this page, not shown here)

[4] = system: HGF‐induced tyrosine phosphorylation of ERK 1/2 in HeLa cells; assay: Western blot of p-ERK in HGF-stimulated HeLa cells; assay type: cell-based; conditions: 1 h treatment
Method: Cellular experiments: HeLa cells were cultivated in DMEM buffer with 10 % FCS in 75 cm^2 cell culture flasks at 37 °C, 5 % CO2. At confluency of about 75 %, cells were seeded in a density of 250,000 cells/mL in 6‐well plates and incubated for 24 h. Subsequently, medium was removed and replaced by DMEM buffer with 0.1 % BSA (1 mL per well) and incubated for another 16 h. Hepatocyte growth factor (HGF, 20 ng/well) and test compounds in different final concentrations (1 μL, in DMSO) were added. Control wells received the same amount of DMSO (final concentration 0.1 %) or no addition. Plates were incubated for 1 h, then washed with cold PBS and shaken with lysis buffer (mPer reagent ThermoScientific # 78501 with 1 mM NaF, 2 mM Na3VO4, 25× protease inhibitor) for 5 min. Cell lysates were transferred to Eppendorf cups and centrifuged at 4 °C with 10,000 g for 10 min. […] The blot was incubated with anti‐phospo‐ERK as primary antibody (Cell Signaling # 9106, dilution 1 : 2000 in TBS‐Tween/ 2 % BSA) overnight at 4 °C, washed 3×5 min with TBS‐Tween, and incubated with anti‐mouse IgG‐hrp as secondary antibody (Santa Cruz # sc2031, 1 : 6000 in TBS‐ Tween/ 2 % BSA, RT, 1.5 h). The blot was again washed 3×5 min with TBS‐Tween and imaged with the ECL system (ThermoScientific # 34080) at Syngene PXi Imager. From the same lysis sample, under the same conditions, ERK 1/2 and β‐tubulin were blotted. For β‐tubulin, the antibody incubation time was adjusted to 2 h at RT.

For `CC(=O)N[C@@H](CC(=O)O)C(=O)N[C@@H](C)C(=O)N[C@@H](CC(=O)O)C(=O)N[C@@H](CCC(=O)O)C(=O)N[C@@H](Cc1ccc(C(F)(F)P(=O)(O)O)cc1)C(=O)N[C@@H](CC(C)C)C(N)=O` [Compound 2, Ac-DADE-(PDFM-F)-L-NH2, reference compound] (Ac-DADE[F2Pmp]L-NH2), the Ki ([1]; read-out: KI PTP1B) was 1400 ± 400 nM.
`CC(=O)N[C@@H](CC(=O)O)C(=O)N[C@@H](C)C(=O)N[C@@H](CC(=O)O)C(=O)N[C@@H](CCC(=O)O)C(=O)NC(CNc1ccc(CC(=O)O)cc1)C(=O)N[C@@H](CC(C)C)C(N)=O` (stereo partly drawn) [Compound 15] (Ac-DADE[ξDap](X1)L-NH2) showed a Ki ([1]; read-out: KI PTP1B) of 138000 ± 21000 nM.
In the case of `CC(=O)N[C@@H](CC(=O)O)C(=O)N[C@@H](C)C(=O)N[C@@H](CC(=O)O)C(=O)N[C@@H](CCC(=O)O)C(=O)NC(CNc1ccc(OCC(=O)O)cc1)C(=O)N[C@@H](CC(C)C)C(N)=O` (stereo partly drawn) [Compound 16] (Ac-DADE[ξDap](X2)L-NH2), the Ki ([1]; read-out: KI PTP1B) is reported as 213000 ± 21000 nM.
For `CC(=O)N[C@@H](CC(=O)O)C(=O)N[C@@H](C)C(=O)N[C@@H](CC(=O)O)C(=O)N[C@@H](CCC(=O)O)C(=O)NC(CC1C(=O)NC(=O)NC1=O)C(=O)N[C@@H](CC(C)C)C(N)=O` (stereo partly drawn) [Compound 17] (Ac-DADE[X3]L-NH2), the Ki [1] was 123000 ± 16000 nM.
In the case of `CC(=O)N[C@@H](CC(=O)O)C(=O)N[C@@H](C)C(=O)N[C@@H](CC(=O)O)C(=O)N[C@@H](CCC(=O)O)C(=O)N[C@@H](CNc1ccc(NS(=O)(=O)C(F)(F)F)cc1)C(=O)N[C@@H](CC(C)C)C(N)=O` [Compound 18] (Ac-DADE[Dap](X4)L-NH2), the Ki ([1]; read-out: KI PTP1B) is reported as 202000 ± 21000 nM.
With `O=C(O)Cc1ccc(N/N=C2\C(=O)N(c3ccc([N+](=O)[O-])cc3)N=C2c2ccc([N+](=O)[O-])cc2)cc1` [Compound 21, (Z)‐2‐(4‐(2‐(1,3‐Bis‐(4‐nitrophenyl)‐5‐oxo‐1,5‐dihydro‐4H‐pyrazol‐4‐ylidene)‐hydrazinyl)‐phenyl)‐acetic acid] the Ki [2] was 79 nM, the Ki ([3]; Michaelis-Menten kinetics at different substrate concentrations, competitive model, read-out: KI SHP2 (Table 2, footnote b) (converted)) was 32 nM and the “Mode of inhibition of SHP2” value ([3]; best fit among competitive, uncompetitive, non-competitive models) was “competitive inhibitor; also recorded: competitive mode of inhibition”. For the same molecule, the “KI by Michaelis-Menten kinetics, uncompetitive model” value ([3]; inhibitor 0, 75, 100, 150 nM, DiFMUP 100, 50, 25, 12.5 µM, R2 0.8637) was 8.4 nM, the Ki ([3]; inhibitor 0, 75, 100, 150 nM, DiFMUP 100, 50, 25, 12.5 µM, R2 0.8991, read-out: KI by Michaelis-Menten kinetics, non-competitive model) was 46.5 nM and the Ki ([3]; inhibitor 0, 75, 100, 150 nM, DiFMUP 100, 50, 25, 12.5 µM, best fit, R2 0.9007, read-out: KI by Michaelis-Menten kinetics, competitive model) was 32 nM. For the same molecule, the “Effect on HGF‐induced tyrosine phosphorylation of ERK 1/2” value ([4]; Western blot, DMSO control) was “decreased” and the “Concentration giving (complete) dephosphorylation of Erk / inhibition of Erk phosphorylation” value ([4]; HGF 20 ng/well, Western blot p-ERK) was 6.25 µM.
